“Also recorded” adds a separate entry of the source.
Assays:
[1] = Heating of crystals in ceramic crucible on hot plate (Example 23); type: physicochemical; settings: towel-dried crystals heated on a hot plate
Text: Another large portion of the crystalline mass was dried with a paper towel and placed in a ceramic crucible that was heated on a hot plate.

[2] = Dissolution of crystalline bromine-containing solid in water; type: physicochemical; settings: crystalline solid dissolved in water
Text: The resulting slurry was stirred as solid sodium hydroxide pellets were charged to the reaction flask. […] As the reaction proceeded, a fine powdery precipitate developed which was removed by vacuum filtration. […] Iodometric titration of the resulting golden yellow solution was used to determine its Br2 content of 27.2% (or 12.1% as Cl2). Within a few minutes, this highly concentrated bromine solution started to turn turbid as crystals began to form. The crystallizing solution was chilled in an ice bath to expedite the development of the crystals. A large crop of yellow crystalline material was separated by vacuum filtration, and the mother liquors were retitrated iodometrically. […] There were no insoluble residues. Iodometric titration of resulting solutions was used to calculate that the crystalline solid contained 29.9% Br2 (13.1% as Cl2).
To a stirred reaction flask containing 40% sodium bromide solution was added solid sulfamic acid (82.3 g). The resultant slurry was stirred as 50% sodium hydroxide (60.2 g) was introduced. […] However, the reaction medium became very viscous, and this hampered the mixing efficiency, so deionized water (35.8 g) was added to thin the mixture. The fine powdery precipitate that developed was removed by vacuum filtration. […] The mother liquors were determined to have a bromine content of 20.9% as Br2 (9.3% as Cl2) by iodometric titration. […]

[3] = cited from earlier work
[4] = test system: Pseudomonas aeruginosa; test: Biocidal performance, plate counting of viable bacteria (Example 20); type: cell-based; settings: nominal 0.2 ppm total halogen as Cl2, phosphate buffer pH 8.5, 10 minutes at 35° C.
Text: The biocidal performance of the liquid composition of the present invention was compared to a solution of sodium bromide activated using an equimolar amount of sodium hypochlorite bleach, and a solution prepared from 1-bromo-3-chloro-5,5-dimethylhydantoin (BCDMH). Sterile phosphate buffer samples (pH 8.5) were inoculated with Pseudomonas aeruginosa to give a concentration of approximately 5×10^6 bacteria/ml and then challenged with the test systems at a nominal concentration of 0.2 ppm total halogen (as Cl2).
After a contact time of 10 minutes at 35° C., an aliquot of sodium thiosulfate was added to each sample to neutralize the halogen. The level of viable bacteria in each sample was determined by plate counting. Plates were incubated at 35° C. for 48 hours.

[5] = Storage stability of anhydrous N-bromosulfamate sodium salt in vacuum dessicator (Example 24); type: physicochemical; settings: three months of storage at room temperature in vacuum dessicator
Procedure: A further portion of the towel dried crystals from Example 17 was dehydrated by placing in a vacuum dessicator containing molecular sieves. After 15 days, a loss of 31% of the original weight was determined. Although the crystals lost their glass-like appearance, the rhomobohedral shape was retained.
The sodium salt of anhydrous N-bromosulfamate was placed back in the vacuum dessicator.

O=S(=O)([O-])NBr.[Na+] [Example 17, sodium salt of hydrated N-bromosulfamate]
Temperature at which water of crystallization boiled off and product decomposed, evolving bromine vapors [1]: about 221 ° F. | Dissolution in water [2]: dissolved rapidly and completely; also recorded: dissolved quickly and completely

CC1(C)C(=O)N(Cl)C(=O)N1Br [BCDMH, 1-bromo-3-chloro-5,5-dimethylhydantoin]
Water solubility ([3]; at 20° C.): 0.1% | Log Reduction in viable bacteria/ml [4]: 3.3 Log | Viable bacteria/ml after 10 minutes ([4]; inoculum approx. 5×10^6 bacteria/ml): 2.5 × 10^3 bacteria/ml

O=c1n(Cl)c(=O)n(Cl)c(=O)n1Cl [trichloroisocyanuric acid]
Saturated solution in water ([3]; at 25° C.): 1.1 % as Cl2

O=S(=O)([O-])NBr.[Na+] [sodium salt of anhydrous N-bromosulfamate]
Loss of activity on storage [5]: not to have lost any activity

— US7455859B2, “Highly concentrated bromine compositions and methods of preparation” (Enviro Tech Chemical Services, Inc., priority 2003, dated 2008)
